According to the NIST ThermoML archive (doi:10.1007/s10765-009-0602-6):

Experiment: molar heat capacity at constant volume; xn = mol fraction of the nth substance listed
Settings: x1 = 0.2607

N [ammonia] + O
Settings	molar heat capacity at constant volume [J/K/mol]
597.59 K, Fluid (supercritical or subcritical phases), Mass density=342.18 kg/m3, isochoric heat capacity	106.69
597.6 K, Fluid (supercritical or subcritical phases), Mass density=160.07 kg/m3, isochoric heat capacity	66.86
597.67 K, Fluid (supercritical or subcritical phases), Mass density=342.18 kg/m3, isochoric heat capacity	101.08
597.68 K, Fluid (supercritical or subcritical phases), Mass density=376.89 kg/m3, isochoric heat capacity	88.28
597.69 K, Fluid (supercritical or subcritical phases), Mass density=160.07 kg/m3, isochoric heat capacity	65.49
597.76 K, Fluid (supercritical or subcritical phases), Mass density=342.18 kg/m3, isochoric heat capacity	93.62
597.85 K, Fluid (supercritical or subcritical phases), Mass density=342.18 kg/m3, isochoric heat capacity	99.13
597.93 K, Fluid (supercritical or subcritical phases), Mass density=342.18 kg/m3, isochoric heat capacity	94.33
597.93 K, Fluid (supercritical or subcritical phases), Mass density=376.89 kg/m3, isochoric heat capacity	82.42
598.02 K, Fluid (supercritical or subcritical phases), Mass density=342.18 kg/m3, isochoric heat capacity	93.02
598.28 K, Fluid (supercritical or subcritical phases), Mass density=376.89 kg/m3, isochoric heat capacity	83.59
598.33 K, Fluid (supercritical or subcritical phases), Mass density=329 kg/m3, isochoric heat capacity	117.38
598.33 K, Liquid, Isochoric heat capacity	117.38
598.45 K, Fluid (supercritical or subcritical phases), Mass density=329 kg/m3, isochoric heat capacity	113.21
598.54 K, Fluid (supercritical or subcritical phases), Mass density=329 kg/m3, isochoric heat capacity	109.57
598.71 K, Fluid (supercritical or subcritical phases), Mass density=329 kg/m3, isochoric heat capacity	102.77
598.96 K, Fluid (supercritical or subcritical phases), Mass density=320.33 kg/m3, isochoric heat capacity	120.79
598.96 K, Liquid, Isochoric heat capacity	120.79
598.97 K, Fluid (supercritical or subcritical phases), Mass density=376.89 kg/m3, isochoric heat capacity	81.57
598.98 K, Fluid (supercritical or subcritical phases), Mass density=160.07 kg/m3, isochoric heat capacity	58.27
599.05 K, Fluid (supercritical or subcritical phases), Mass density=320.33 kg/m3, isochoric heat capacity	119.07
599.05 K, Fluid (supercritical or subcritical phases), Mass density=329 kg/m3, isochoric heat capacity	107.4
599.12 K, Fluid (supercritical or subcritical phases), Mass density=160.07 kg/m3, isochoric heat capacity	56.88
599.14 K, Fluid (supercritical or subcritical phases), Mass density=320.33 kg/m3, isochoric heat capacity	116.6
599.22 K, Fluid (supercritical or subcritical phases), Mass density=320.33 kg/m3, isochoric heat capacity	116.48
599.22 K, Fluid (supercritical or subcritical phases), Mass density=329 kg/m3, isochoric heat capacity	100.28
599.24 K, Fluid (supercritical or subcritical phases), Mass density=160.07 kg/m3, isochoric heat capacity	59.53
599.28 K, Fluid (supercritical or subcritical phases), Mass density=160.07 kg/m3, isochoric heat capacity	57.43
599.31 K, Fluid (supercritical or subcritical phases), Mass density=320.33 kg/m3, isochoric heat capacity	114.22
599.31 K, Fluid (supercritical or subcritical phases), Mass density=329 kg/m3, isochoric heat capacity	97.19
599.31 K, Fluid (supercritical or subcritical phases), Mass density=456.58 kg/m3, isochoric heat capacity	67.32
599.39 K, Fluid (supercritical or subcritical phases), Mass density=320.33 kg/m3, isochoric heat capacity	116.94
599.42 K, Fluid (supercritical or subcritical phases), Mass density=312.91 kg/m3, isochoric heat capacity	124.13
599.42 K, Liquid, Isochoric heat capacity	124.13
599.48 K, Fluid (supercritical or subcritical phases), Mass density=312.91 kg/m3, isochoric heat capacity	116.5
599.48 K, Fluid (supercritical or subcritical phases), Mass density=456.58 kg/m3, isochoric heat capacity	66.88
599.57 K, Fluid (supercritical or subcritical phases), Mass density=311.19 kg/m3, isochoric heat capacity	125.38
599.57 K, Fluid (supercritical or subcritical phases), Mass density=312.91 kg/m3, isochoric heat capacity	107.92
599.57 K, Liquid, Isochoric heat capacity	125.38
599.63 K, Fluid (supercritical or subcritical phases), Mass density=311.19 kg/m3, isochoric heat capacity	116.92
599.65 K, Fluid (supercritical or subcritical phases), Mass density=312.91 kg/m3, isochoric heat capacity	98.79
599.65 K, Fluid (supercritical or subcritical phases), Mass density=456.58 kg/m3, isochoric heat capacity	66.45
599.67 K, Fluid (supercritical or subcritical phases), Mass density=309.95 kg/m3, isochoric heat capacity	126.26
599.67 K, Liquid, Isochoric heat capacity	126.26
599.74 K, Fluid (supercritical or subcritical phases), Mass density=309.95 kg/m3, isochoric heat capacity	122.91
599.74 K, Fluid (supercritical or subcritical phases), Mass density=311.19 kg/m3, isochoric heat capacity	119.75
599.74 K, Fluid (supercritical or subcritical phases), Mass density=312.91 kg/m3, isochoric heat capacity	95.52
599.78 K, Fluid (supercritical or subcritical phases), Mass density=308.35 kg/m3, isochoric heat capacity	124.13
599.78 K, Fluid (supercritical or subcritical phases), Mass density=309.95 kg/m3, isochoric heat capacity	120.4
599.78 K, Liquid, Isochoric heat capacity	124.13
599.82 K, Fluid (supercritical or subcritical phases), Mass density=309.95 kg/m3, isochoric heat capacity	110.51
599.82 K, Fluid (supercritical or subcritical phases), Mass density=311.19 kg/m3, isochoric heat capacity	114.13
599.82 K, Fluid (supercritical or subcritical phases), Mass density=456.58 kg/m3, isochoric heat capacity	66.86
599.89 K, Fluid (supercritical or subcritical phases), Mass density=307.35 kg/m3, isochoric heat capacity	121.11
599.89 K, Liquid, Isochoric heat capacity	121.11
599.91 K, Fluid (supercritical or subcritical phases), Mass density=308.35 kg/m3, isochoric heat capacity	117.6
599.91 K, Fluid (supercritical or subcritical phases), Mass density=309.95 kg/m3, isochoric heat capacity	104.19
599.99 K, Fluid (supercritical or subcritical phases), Mass density=307.35 kg/m3, isochoric heat capacity	117.17
599.99 K, Fluid (supercritical or subcritical phases), Mass density=308.35 kg/m3, isochoric heat capacity	105.88
599.99 K, Fluid (supercritical or subcritical phases), Mass density=309.95 kg/m3, isochoric heat capacity	102.57
599.99 K, Fluid (supercritical or subcritical phases), Mass density=312.91 kg/m3, isochoric heat capacity	91.51
600.02 K, Fluid (supercritical or subcritical phases), Mass density=305.44 kg/m3, isochoric heat capacity	119.52
600.02 K, Liquid, Isochoric heat capacity	119.52
600.08 K, Fluid (supercritical or subcritical phases), Mass density=305.44 kg/m3, isochoric heat capacity	116.14
600.08 K, Fluid (supercritical or subcritical phases), Mass density=307.35 kg/m3, isochoric heat capacity	103.34
600.08 K, Fluid (supercritical or subcritical phases), Mass density=308.35 kg/m3, isochoric heat capacity	100.97
600.16 K, Fluid (supercritical or subcritical phases), Mass density=307.35 kg/m3, isochoric heat capacity	101.06
600.17 K, Fluid (supercritical or subcritical phases), Mass density=303.47 kg/m3, isochoric heat capacity	117.74
600.17 K, Fluid (supercritical or subcritical phases), Mass density=305.44 kg/m3, isochoric heat capacity	107.85
600.17 K, Fluid (supercritical or subcritical phases), Mass density=308.35 kg/m3, isochoric heat capacity	93.64
600.17 K, Liquid, Isochoric heat capacity	118.63
600.25 K, Fluid (supercritical or subcritical phases), Mass density=303.47 kg/m3, isochoric heat capacity	110.49
600.25 K, Fluid (supercritical or subcritical phases), Mass density=305.44 kg/m3, isochoric heat capacity	102.54
600.29 K, Fluid (supercritical or subcritical phases), Mass density=301.94 kg/m3, isochoric heat capacity	117.56
600.29 K, Liquid, Isochoric heat capacity	117.56
600.33 K, Fluid (supercritical or subcritical phases), Mass density=301.94 kg/m3, isochoric heat capacity	111.7
600.34 K, Fluid (supercritical or subcritical phases), Mass density=303.47 kg/m3, isochoric heat capacity	104.01
600.34 K, Fluid (supercritical or subcritical phases), Mass density=305.44 kg/m3, isochoric heat capacity	105.13
600.35 K, Fluid (supercritical or subcritical phases), Mass density=309.95 kg/m3, isochoric heat capacity	100.02
600.42 K, Fluid (supercritical or subcritical phases), Mass density=303.47 kg/m3, isochoric heat capacity	98.88
600.42 K, Fluid (supercritical or subcritical phases), Mass density=305.44 kg/m3, isochoric heat capacity	97.9
